Test results: patent US10293009B2, “Pharmaceutical or food composition comprising Oldenlandia brachypoda, Spergularia marina, Disporum smilacinum, Persicaria posumbu, or Geum aleppicum” (KOREA FOOD RESEARCH INSTITUTE, priority 2012, dated 2019)

Columns and labels:
STC-1 cells [1] = assay: CCK secretion in STC-1 cells (EIA); type: cell-based; settings: 60 minutes
Description: STC-1 cells were cultured in Dulbecco's modified Eagle's medium (DMEM) containing 10% fetal bovine serum (FBS) and 1% penicillin-streptomycin in an incubator maintained at 37° C. and 5% CO2. […] An enzyme immunoassay (EIA) kit (Phoenix Pharmaceuticals Inc., Belmont Calif.) was used.

RIN14B cells [2] = assay: Change in Ca2+ level in RIN14B cells after inhibitor pretreatment (RR, HC-030031); type: cell-based; settings: 300 μM
Description: (§1) The cells were inoculated onto a black 96-well clear-bottom plate (Corning) at a concentration of 5.0×10^4 cells/well and incubated under the condition of 37° C. and 5% CO2. 48 hours later, the cells were incubated at 37° C. for 60 minutes using the Calcium-5 assay kit (Molecular Devices) and the change in Ca^2+ level was measured using Flexstation III. The change in Ca^2+ level was monitored for about 120 seconds at fluorescence wavelengths of 488 nm (ex) and 525 nm (em) and for 2 seconds after injecting the compound for 20 seconds.
The RIN14B cells were pretreated for 60 minutes with 100 μM ruthenium red (RR) or with 50 μM HC-030031. […]

RIN14B cells [3] = assay: 5-HT secretion in RIN14B cells (Serotonin EIA); type: cell-based; settings: 300 μM, 60 minutes
Description: RIN14B cells were cultured in RPMI medium 1640 containing 10% fetal bovine serum (FBS) and 1% penicillin-streptomycin in an incubator maintained at 37° C. and 5% CO2.
(§2) The cultured cells were inoculated onto a 24-well plate at a concentration of 2×10^5 cells/well and incubated under the condition of 37° C. and 5% CO2. 72 hours later, the cells were washed 2 times with 5-HT assay buffer (HBSS, 0.1% BSA, 1.25 mM CaCl2, 2 μM fluoxetine, pH 7.4) and then incubated at 37° C. for 60 minutes after adding the test substance to the 5-HT assay buffer. After the incubation, the medium was centrifuged at 10,000 rpm for 10 minutes and the resultant supernatant was stored at −70° C. for use in analysis. A Serotonin (EIA) kit (Enzo Life Sciences) was used.

STC-1 cells [4] = assay: Change in Ca2+ level in STC-1 cells; type: cell-based
Description: as §1, with “onto a poly-D-Lysine-coated black 96-well” for “onto a black 96-well”, “clear-bottom plate (Thermo) at a” for “clear-bottom plate (Corning) at a”, “concentration of 8.0×10^4 cells/well and” for “concentration of 5.0×10^4 cells/well and”, “5% CO2. 72 hours later,” for “5% CO2. 48 hours later,”

RIN14B cells [5] = assay: 5-HT secretion in RIN14B cells after inhibitor pretreatment (RR, HC-030031); type: cell-based; settings: 300 μM
Description: as §2
The RIN14B cells were pretreated for 30 minutes with 100 μM ruthenium red (RR) or with 50 μM HC-030031. […]

STC-1 cells [6] = assay: CCK secretion in STC-1 cells after inhibitor pretreatment (RR, HC-030031, TPPO, U-73122); type: cell-based; settings: 0.1 mM
Description: as §2, with “HEPES” for “5-HT assay”, “(4.5 mM KCl, 1.2” for “(HBSS, 0.1% BSA, 1.25”, “1.2 mM MgCl2, 10 mM glucose, 140 mM NaCl, 20 mM HEPES-Tris,” for “2 μM fluoxetine,”, “10000” for “10,000”, “An enzyme immunoassay” for “A Serotonin”, “(Phoenix Pharmaceuticals Inc., Belmont Calif.)” for “(Enzo Life Sciences)”
The STC-1 cells were pretreated for 30 minutes with 100 μM ruthenium red (RR) or with 50 μM HC-030031. After adding 50 μg/mL of the extract, the cells were incubated at 37° C. for 60 minutes.
The STC-1 cells were pretreated for 30 minutes with 100 μM ruthenium red (RR) or with 50 μM HC-030031. After adding 500 μg/mL of the extract, the cells were incubated at 37° C. for 60 minutes.
The STC-1 cells were pretreated for 30 minutes with 400 μM TPPO or with 20 μM U-73122.
After adding 500 μg/mL of the extract, the cells were incubated at 37° C. for 60 minutes.
The STC-1 cells were pretreated for 30 minutes with 100 μM ruthenium red (RR) or with 50 μM HC-030031. Then, the cells were incubated at 37° C. for 60 minutes after adding 500 μg/mL of the extract.
Then, the cells were incubated at 37° C. for 60 minutes after adding 500 μg/mL of the extract.

STC-1 cells [7] = assay: Change in Ca2+ level in STC-1 cells after inhibitor pretreatment (RR, HC-030031, TPPO, U-73122); type: cell-based; settings: 0.1 mM
Description: as §1, with “onto a poly-D-Lysine-coated black 96-well” for “onto a black 96-well”, “clear-bottom plate (Thermo) at a” for “clear-bottom plate (Corning) at a”, “concentration of 8.0×10^4 cells/well and” for “concentration of 5.0×10^4 cells/well and”, “5% CO2. 72 hours later,” for “5% CO2. 48 hours later,”
The STC-1 cells were pretreated for 60 minutes with 100 μM ruthenium red (RR) or with 50 μM HC-030031. Then, the cells were treated with 1 mg/mL of the extract.
The STC-1 cells were pretreated for 60 minutes with 400 μM TPPO or with 20 μM U-73122.
Then, the cells were treated with 1 mg/mL of the extract.
The STC-1 cells were pretreated for 60 minutes with 100 μM ruthenium red or with 50 μM HC-030031. Then, the cells were treated with 1 mg/mL of the extract.
The STC-1 cells were pretreated for 60 minutes with 400 μM TPPO or with 20 μM U-73122. Then, the cells were treated with 1 mg/mL of the extract.

RIN14B cells [8] = assay: Change in Ca2+ level in RIN14B cells; type: cell-based
Description: as §1

STC-1 cells [9] = assay: Membrane potential change in STC-1 cells; type: cell-based
GPR119 = biological target: T1, GPR119 (Homo sapiens, UniProt Q8TDV5); assay: GLP-1 secretion in NCI-H716 cells treated with GPR119 siRNA; type: cell-based
T1 construct: The transfection of the cells with GPR119 siRNA leads to knockdown of the GPR119 gene; endogenous in cells; host or cells: NCI-H716 cells
T1 sequence (Q8TDV5 1-335): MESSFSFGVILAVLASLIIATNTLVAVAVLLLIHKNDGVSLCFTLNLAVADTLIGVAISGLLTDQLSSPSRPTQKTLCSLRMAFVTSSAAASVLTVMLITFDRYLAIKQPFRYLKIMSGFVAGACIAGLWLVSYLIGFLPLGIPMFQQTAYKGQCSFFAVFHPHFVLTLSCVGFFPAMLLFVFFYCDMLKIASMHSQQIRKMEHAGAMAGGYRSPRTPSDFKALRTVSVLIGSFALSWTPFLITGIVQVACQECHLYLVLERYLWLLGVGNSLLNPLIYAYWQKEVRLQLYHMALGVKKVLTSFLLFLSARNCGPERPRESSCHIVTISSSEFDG
Description: The NCI-H716 cells were cultured on a 96-well plate for 3 days to a concentration of 2×10^5 cells/mL. On the day of the experiment, the cells were washed with phosphate-buffered saline (PBS) and incubated at 37° C. for 1 hour in Krebs-Ringer bicarbonate buffer (KRB, 128.8 mmol/L NaCl, 4.8 mmol/L KCl, 1.2 mmol/L KH2PO4, 1.2 mmol/L MgSO4, 2.5 mmol/L CaCl2, 5 mmol/L NaHCO3, 10 mmol/L HEPES, 0.2% BSA, pH 7.4) to which the sample was added. Then, for GLP-1 assay, the supernatant (100 μL) was taken and analyzed using an active GLP-1 ELISA kit (EGLP-35K, Millipore). The concentration of GLP-1 was calculated GLP-1 standard (pmol/mL) and the result was expressed as fold of control by comparing the concentration of GLP-1 secreted by stimulation with the sample and the concentration of GLP-1 secreted by stimulation with a control substance.
siRNA sequence targeting human α-gustducin (GNAT3, accession no. NM 001102386, Dharmacon on-target SMARTpool siRNA reagent), GPR119 ([…]/GeneBank accession no. NM_176817) and non-target SMARTpool siRNA were purchased from Dharmacon (Lafayette, Colo.). The NCI-H716 cells were transfected with the siRNAs for 48 hours using the Neon™ transfection system (Invitrogen, Carlsbad, Calif.). Then, GLP-1 secretion and the concentrations of Ca^2+ and cAMP were measured.

NCI-H716 cells = assay: Intracellular cAMP in NCI-H716 cells (EIA); type: cell-based, Human; settings: 20 μM
Description: The NCI-H716 cells were plated onto a 24-well culture plate at a concentration of 1×10^6 cells/mL and cultured for 3 days. On the day of the experiment, the cells were incubated with the sample in KRB buffer at 37° C. using a 5% CO2 incubator. After the incubation, the medium was removed and the cells were washed 3 times with KRB buffer. They were then incubated at 150 rpm at room temperature for 20 minutes after adding 0.5 mL of 0.1 N HCl. The incubated cells were then centrifuged at 1000 g for 10 minutes and the supernatant was analyzed by an enzyme immunoassay (EIA) using the cyclic AMP kit.

C=CCN=C=S [AITC]
CCK secretion, Fold of control (mean ± S.E.M.) (STC-1 cells [1]; 0.1 mM): 21.57 ± 0.59 Fold of control | CCK secretion, Fold of control (mean ± S.E.M.) (STC-1 cells [1]; 1 mM): 21.99 ± 0.64 Fold of control | CCK secretion, Fold of control (mean ± S.E.M.) (STC-1 cells [1]; 10 mM): 25.59 ± 0.59 Fold of control | Inhibition (%) of Ca^2+ change (RIN14B cells [2]; HC-030031 50 μM): 70.31% | Inhibition (%) of Ca^2+ change (RIN14B cells [2]; RR 100 μM): 66.36% | Change in Ca^2+ level, ΔRFU (mean ± S.E.M.) (RIN14B cells [2]; inhibitor: Untreated): 13.42 ± 1.08 ΔRFU | Change in Ca^2+ level, ΔRFU (mean ± S.E.M.) (RIN14B cells [2]; pretreated 50 μM HC-030031): 3.98 ± 0.80 ΔRFU | Change in Ca^2+ level, ΔRFU (mean ± S.E.M.) (RIN14B cells [2]; pretreated 100 μM RR): 4.51 ± 1.40 ΔRFU | 5-HT secretion, Fold of control (mean ± S.E.M.) (RIN14B cells [3]): 8.11 ± 2.70 Fold of control | Change in Ca^2+ level, ΔRFU (mean ± S.E.M.) (STC-1 cells [4]; 0.1 mM): 105.41 ± 2.12 ΔRFU | Change in Ca^2+ level, ΔRFU (mean ± S.E.M.) (STC-1 cells [4]; 1 mM): 151.04 ± 5.65 ΔRFU | Change in Ca^2+ level, ΔRFU (mean ± S.E.M.) (STC-1 cells [4]; 10 mM): 168.68 ± 5.79 ΔRFU | Inhibition (%) of 5-HT secretion (RIN14B cells [5]; HC-030031 50 μM): −11.27% | Inhibition (%) of 5-HT secretion (RIN14B cells [5]; RR 100 μM): 55.56% | 5-HT secretion, Fold of control (mean ± S.E.M.) (RIN14B cells [5]; inhibitor: Untreated): 8.11 ± 2.70 Fold of control | 5-HT secretion, Fold of control (mean ± S.E.M.) (RIN14B cells [5]; pretreated 50 μM HC-030031): 9.02 ± 6.37 Fold of control | 5-HT secretion, Fold of control (mean ± S.E.M.) (RIN14B cells [5]; pretreated 100 μM RR): 3.60 ± 1.80 Fold of control | Inhibition (%) of CCK secretion (STC-1 cells [6]; HC-030031 50 μM): 52.58% | Inhibition (%) of CCK secretion (STC-1 cells [6]; RR 100 μM): 73.21% | CCK secretion, Fold of control (mean ± S.E.M.) (STC-1 cells [6]; inhibitor: Untreated): 22.56 ± 0.65 Fold of control | CCK secretion, Fold of control (mean ± S.E.M.) (STC-1 cells [6]; pretreated 50 μM HC-030031): 10.70 ± 0.92 Fold of control | CCK secretion, Fold of control (mean ± S.E.M.) (STC-1 cells [6]; pretreated 100 μM RR): 6.04 ± 0.73 Fold of control | Inhibition (%) of Ca^2+ change (STC-1 cells [7]; HC-030031 50 μM): 83.50% | Inhibition (%) of Ca^2+ change (STC-1 cells [7]; RR 100 μM): 93.14% | Change in Ca^2+ level, ΔRFU (mean ± S.E.M.) (STC-1 cells [7]; inhibitor: Untreated): 400.52 ± 6.90 ΔRFU | Change in Ca^2+ level, ΔRFU (mean ± S.E.M.) (STC-1 cells [7]; pretreated 50 μM HC-030031): 66.07 ± 2.56 ΔRFU | Change in Ca^2+ level, ΔRFU (mean ± S.E.M.) (STC-1 cells [7]; pretreated 100 μM RR): 27.47 ± 1.77 ΔRFU | Change in Ca^2+ level, ΔRFU (mean ± S.E.M.) (RIN14B cells [8]; 50 μM): 13.44 ± 1.78 ΔRFU | Change in Ca^2+ level, ΔRFU (mean ± S.E.M.) (RIN14B cells [8]; 300 μM): 19.78 ± 4.08 ΔRFU | Change in Ca^2+ level, ΔRFU (mean ± S.E.M.) (RIN14B cells [8]; 500 μM): 22.17 ± 3.65 ΔRFU

[Cl-].[K+] [KCl]
Membrane potential change, ΔRFU (mean ± SEM) (STC-1 cells [9]; 0.1 mM): 17.01 ± 0.93 ΔRFU | Membrane potential change, ΔRFU (mean ± SEM) (STC-1 cells [9]; 1 mM): 35.08 ± 3.43 ΔRFU | Membrane potential change, ΔRFU (mean ± SEM) (STC-1 cells [9]; 10 mM): 270.08 ± 9.57 ΔRFU

CCCCCCCC/C=C\CCCCCCCC(=O)NCCO [OEA (oleoylethanolamide), oleoylethanolamide]
GLP-1 secretion (fold of control) GPR119 siRNA (GPR119; 20 μM, GPR119 siRNA): 2.975 ± 0.241 fold of control | GLP-1 secretion (fold of control) Control siRNA (GPR119; 20 μM, control siRNA): 4.822 ± 0.358 fold of control | inhibition at 20 µM (GPR119; NCI-H716): 38.3% | cAMP (fold of control) (NCI-H716 cells): 6.813 ± 1.634 fold of control
